Results on three molecules are retold here after patent publication US20170326199A1, “USE OF CASPASE-2 INHIBITORS TO TREAT AND PREVENT THE METABOLIC SYNDROME” (Duke University, priority 2015, published 2017).

Assay [1] has as its system human caspases (including caspase-2). The following applies: broad-spectrum (pan-caspase) inhibitor; cited from earlier work.
The test system of assay [2] is other classes of proteases or other enzymes or receptors other than caspases. To be noted: selectivity; cited from earlier work.
Another assay has as its target T1, caspase-2 (Homo sapiens, UniProt P42575).
T1 sequence (P42575 1-452): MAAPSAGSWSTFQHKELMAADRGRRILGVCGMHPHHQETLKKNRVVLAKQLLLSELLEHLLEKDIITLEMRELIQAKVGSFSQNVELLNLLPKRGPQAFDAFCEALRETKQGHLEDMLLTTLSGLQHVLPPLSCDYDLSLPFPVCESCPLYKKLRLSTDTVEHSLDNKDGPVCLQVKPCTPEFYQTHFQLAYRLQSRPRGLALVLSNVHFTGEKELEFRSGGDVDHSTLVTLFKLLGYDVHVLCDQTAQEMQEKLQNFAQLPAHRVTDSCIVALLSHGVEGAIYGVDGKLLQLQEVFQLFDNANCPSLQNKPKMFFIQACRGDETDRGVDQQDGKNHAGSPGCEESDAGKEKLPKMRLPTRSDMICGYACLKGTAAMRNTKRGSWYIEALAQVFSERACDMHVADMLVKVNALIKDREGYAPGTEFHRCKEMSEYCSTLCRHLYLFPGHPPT
The following applies: cell-permeable peptide; cited from earlier work.

For assay [3], the system named is 3T3-L1 cells differentiated in adipocytes. Description: Palmitate-induced lipoapoptosis (caspase 3/7 activity, ApoTox-Glo Triplex Assay) in 3T3-L1 adipocytes. It counts as cell-based. The following applies: palmitate 1 mM, 48 hours, inhibitor 20 uM, FIG. 4G. As for the experimental part: FIG. 4G. […] Left panel: apoptosis (caspase 3/7 activity) in adipocytes treated with Palmitate 1 mM, 48 hour±caspase-2 inhibitor, VDVAD-FMK 20 uM.
3T3-L1 cells were differentiated in adipocytes as previously described (Zebisch et al., 2012), and differentiation confirmed with Oil red staining. Adipocytes were treated with palmitate 1 mM with or without caspase-2 inhibitor Z-VDVAD-FMK (R&D Systems), 20 uM, for 48 hours. Apoptosis was measured using ApoTox-Glo Triplex Assay (Promega).

For the molecule `C[C@H](NC(=O)C(=O)Nc1ccccc1C(C)(C)C)C(=O)N[C@@H](CC(=O)O)C(=O)COc1c(F)c(F)cc(F)c1F` [IDN-6556], the activity against caspases result in assay [1] is “activity against all tested human caspases (including caspase-2)”. In addition, the “inhibition of non-caspase proteases, enzymes or receptors” value in assay [2] is given as “no inhibition”.

On to “VDVAD [available as a fluoromethylketone derivative]”, for which the “inhibition of caspase-2 activity” value with caspase-2 is on record as “irreversibly inhibits”.

Regarding Z-VDVAD-FMK, the “effect on palmitate-induced lipoapoptosis in adipocytes” value in assay [3] was “prevented”.
